Assays:
rat mGlu3 = rat mGlu3 (Rattus norvegicus (Rat), UniProt P31422); test: mGlu3 Ca2+ flux assay; assay type: cell-based; details: for IC50: NAM, glutamate EC80, >10,000 = decrease without plateau, >30,000 = no measurable activity; for remaining activity at 30 µM: response at 30 μM test compound as percentage of maximal response to glutamate, read-out: rat mGlu3 Glu max (%)
Procedure: Gα15/TREx cells stably expressing rat mGlu3 were plated in black-walled, clear-bottomed, poly-D-lysine coated 384-well plates in 20 μL of assay medium (DMEM containing 10% dialyzed FBS, 20 mM HEPES, 25 ng/mL tetracycline, 100 units/mL penicillin/streptomycin plus 250 ng/mL Fungizone, and 1 mM sodium pyruvate) at a density of 15K cells/well. The cells were grown overnight at 37° C. in the presence of 5% CO2. […] Dye was removed, 20 μL of assay buffer was added, and the plate was incubated for 10 minutes at room temperature.
(§1) Ca^2+ flux was measured using the Functional Drug Screening System (FDSS7000, Hamamatsu, Japan). After establishment of a fluorescence baseline for about 3 seconds, the compounds of the present invention were added to the cells, and the response in cells was measured. 2.3 minutes later an EC20 concentration of the mGlu3 receptor agonist glutamate was added to the cells, and the response of the cells was measured for 1.9 minutes; an EC80 concentration of agonist was added and readings taken for an additional 1.7 minutes. All test compounds were dissolved and diluted to a concentration of 10 mM in 100% DMSO. Compounds were then serially diluted 1:3 in DMSO into 10 point concentration response curves, transferred to daughter plates, and further diluted into assay buffer to a 2× stock. Calcium fluorescence measures were recorded as fold over basal fluorescence; raw data was then normalized to the maximal response to glutamate.
(§2) The raw data file containing all time points was used as the data source in the analysis template. This was saved by the FDSS as a tab-delimited text file. Data were normalized using a static ratio function (F/F0) for each measurement of the total 360 values per well divided by each well's initial value. Data were then reduced to peak amplitudes (Max−Initial Min) using a time range that starts approximately 3 seconds prior to the glutamate EC80 addition and continues for approximately 90 seconds. This is sufficient time to capture the peak amplitude of the cellular calcium response. Individual amplitudes were expressed as % EMax by multiplying each amplitude by 100 and then dividing the product by the mean of the amplitudes derived from the glutamate ECMax-treated wells. EC50 values for test compounds were generated by fitting the normalized values versus the log of the test compound concentration (in mol/L) using a 4 parameter logistic equation where none of the parameters were fixed. Each of the three values collected at each concentration of test compound were weighted evenly.

rat mGlu2 = rat mGlu2 (Rattus norvegicus (Rat), UniProt P31421); test: mGlu2 Ca2+ flux assay; assay type: cell-based; details: NAM, glutamate EC80; >30,000 = no measurable activity
Chain of rat mGlu2 (P31421 19-872): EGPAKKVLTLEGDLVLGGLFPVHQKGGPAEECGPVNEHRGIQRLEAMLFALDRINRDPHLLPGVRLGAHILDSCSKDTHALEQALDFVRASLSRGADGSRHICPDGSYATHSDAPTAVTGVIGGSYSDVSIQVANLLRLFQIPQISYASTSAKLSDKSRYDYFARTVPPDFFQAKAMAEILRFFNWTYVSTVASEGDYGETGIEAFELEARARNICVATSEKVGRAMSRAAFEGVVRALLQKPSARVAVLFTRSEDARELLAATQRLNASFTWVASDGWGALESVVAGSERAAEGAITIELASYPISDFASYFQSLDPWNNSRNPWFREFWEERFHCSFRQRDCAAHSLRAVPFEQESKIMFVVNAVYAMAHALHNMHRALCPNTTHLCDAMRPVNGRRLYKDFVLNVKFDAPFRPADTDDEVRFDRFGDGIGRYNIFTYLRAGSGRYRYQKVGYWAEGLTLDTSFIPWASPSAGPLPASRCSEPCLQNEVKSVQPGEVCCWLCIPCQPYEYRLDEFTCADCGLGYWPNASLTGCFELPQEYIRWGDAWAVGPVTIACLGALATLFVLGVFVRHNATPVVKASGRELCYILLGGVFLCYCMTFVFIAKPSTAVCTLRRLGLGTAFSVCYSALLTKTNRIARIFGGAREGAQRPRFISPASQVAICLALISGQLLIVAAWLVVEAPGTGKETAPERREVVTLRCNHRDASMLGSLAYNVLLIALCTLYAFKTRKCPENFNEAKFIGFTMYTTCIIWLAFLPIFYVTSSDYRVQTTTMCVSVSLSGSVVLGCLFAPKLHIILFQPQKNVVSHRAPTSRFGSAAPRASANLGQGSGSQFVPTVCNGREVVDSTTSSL
Procedure: Gα15 HEK293 cells stably expressing rat mGlu2 were plated in black-walled, clear-bottomed, poly-D-lysine coated 384-well plates in 20 μL of assay medium (DMEM containing 10% dialyzed FBS, 20 mM HEPES, and 1 mM sodium pyruvate) at a density of 12K cells/well. The cells were grown overnight at 37° C. in the presence of 5% CO2. The next day, medium was removed and the cells incubated with 20 μL of […] Fluo-4, AM prepared as a 2.3 mM stock in DMSO and mixed in a 1:1 ratio with 10% (w/v) pluronic acid F-127 and diluted in assay buffer (Hank's balanced salt solution, 20 mM HEPES, and 2.5 mM probenecid) for 45 minutes at 37° C. Dye was removed, 20 μL of assay buffer was added, and the plate was incubated for 5 minutes at room temperature.
as §1, with “mGlu2” for “mGlu3”
as §2, with “ECMax” for “EMax”, “IC50” for “EC50”

Chain of rat mGlu3 (P31422 23-879): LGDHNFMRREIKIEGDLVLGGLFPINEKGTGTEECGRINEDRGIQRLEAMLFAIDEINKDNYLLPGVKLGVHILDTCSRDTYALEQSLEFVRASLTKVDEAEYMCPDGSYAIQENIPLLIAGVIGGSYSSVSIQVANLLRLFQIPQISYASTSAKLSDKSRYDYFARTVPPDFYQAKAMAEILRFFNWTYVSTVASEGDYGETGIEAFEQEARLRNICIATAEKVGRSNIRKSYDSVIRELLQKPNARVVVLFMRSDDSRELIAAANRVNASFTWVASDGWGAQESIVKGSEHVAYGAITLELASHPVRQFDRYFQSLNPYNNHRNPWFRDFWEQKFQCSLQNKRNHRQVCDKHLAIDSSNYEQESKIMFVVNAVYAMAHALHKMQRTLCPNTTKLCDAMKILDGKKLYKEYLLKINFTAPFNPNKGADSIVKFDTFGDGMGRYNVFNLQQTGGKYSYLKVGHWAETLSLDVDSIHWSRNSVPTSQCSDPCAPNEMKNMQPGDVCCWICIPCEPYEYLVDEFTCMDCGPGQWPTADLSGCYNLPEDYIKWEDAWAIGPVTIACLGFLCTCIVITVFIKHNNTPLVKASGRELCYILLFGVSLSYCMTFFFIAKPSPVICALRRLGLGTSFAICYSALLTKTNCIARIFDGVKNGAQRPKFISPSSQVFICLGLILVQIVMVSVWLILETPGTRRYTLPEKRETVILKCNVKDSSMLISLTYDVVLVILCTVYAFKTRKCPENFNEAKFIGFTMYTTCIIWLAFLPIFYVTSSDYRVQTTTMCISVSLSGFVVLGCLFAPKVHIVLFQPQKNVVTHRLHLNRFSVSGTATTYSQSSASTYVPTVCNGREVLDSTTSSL

| Structure (SMILES) | IC50 (rat mGlu3) | remaining activity at 30 µM (rat mGlu3) | IC50 (rat mGlu2) |
| --- | --- | --- | --- |
| O=c1cc(OCCOc2ccccn2)ccn1-c1ccc(F)cc1 [Compound 50, 1-(4-fluorophenyl)-4-(2-(pyridin-2-yloxy)ethoxy)pyridin-2(1H)-one] | 1.94 µM | -0.52% | > 30 µM |
| O=c1cc(OCCOc2cccnc2Cl)ccn1-c1ccc(F)cc1 [Compound 48, 4-(2-((2-chloropyridin-3-yl)oxy)ethoxy)-1-(4-fluorophenyl)pyridin-2(1H)-one] | 5.56 µM | -2.79% | > 30 µM |
| O=c1cc(OCCOc2cccc(Cl)c2)ccn1-c1ccc(F)cc1 [Compound 38, 4-(2-(3-chlorophenoxy)ethoxy)-1-(4-fluorophenyl)pyridin-2(1H)-one] | 0.98 µM | 0.85% | > 30 µM |
| O=c1cc(OCCOc2ccccc2)ccn1-c1cncc(F)c1 [Compound 27, 5′-fluoro-4-(2-phenoxyethoxy)-2H-[1,3′-bipyridin]-2-one] | 1.87 µM | 4.56% | > 30 µM |
| O=c1cc(OCCCc2ccccc2)ccn1-c1ccc(F)cc1 [Compound 2, 1-(4-fluorophenyl)-4-(3-phenylpropoxy)pyridin-2(1H)-one] | 5.41 µM | 1.95% | > 30 µM |
| O=c1cc(OCCOc2ccccc2)ccn1-c1ccccn1 [Compound 11, 4-(2-phenoxyethoxy)-2H-[1,2′-bipyridin]-2-one] | > 30 µM | – | > 30 µM |
| O=c1cc(OCCOc2ncccc2F)ccn1-c1ccc(F)cc1 [Compound 51, 1-(4-fluorophenyl)-4-(2-((3-fluoropyridin-2-yl)oxy)ethoxy)pyridin-2(1H)-one] | 1.28 µM | 0.2% | > 30 µM |
| O=c1cc(OCCOc2ccccc2)ccn1-c1ccccc1F [Compound 10, 1-(2-Fluorophenyl)-4-(2-phenoxyethoxy)pyridin-2-one] | 3.93 µM | 1.16% | > 30 µM |
| O=c1cc(OCCOc2cccnc2F)ccn1-c1ccc(F)cc1 [Compound 40, 1-(4-fluorophenyl)-4-(2-((2-fluoropyridin-3-yl)oxy)ethoxy)pyridin-2(1H)-one] | 4.74 µM | -4.22% | > 30 µM |
| O=c1cc(OCCOc2ccccc2)ccn1-c1cccc(F)n1 [Compound 12, 6′-fluoro-4-(2-phenoxyethoxy)-2H-[1,2′-bipyridin]-2-one] | > 10 µM | 33.2% | > 30 µM |
| O=c1cc(OCCOc2cncc(Cl)c2)ccn1-c1ccc(F)cc1 [Compound 46, 4-(2-((5-chloropyridin-3-yl)oxy)ethoxy)-1-(4-fluorophenyl)pyridin-2(1H)-one] | 2.79 µM | 0.41% | > 30 µM |
| O=c1cc(OCCOc2cccc(Cl)n2)ccn1-c1ccc(F)cc1 [Compound 53, 4-(2-((6-chloropyridin-2-yl)oxy)ethoxy)-1-(4-fluorophenyl)pyridin-2(1H)-one] | 4.27 µM | -1.66% | > 30 µM |
| O=c1cc(OCCOc2ccc(F)cn2)ccn1-c1ccc(F)cc1 [Compound 52, 1-(4-fluorophenyl)-4-(2-((5-fluoropyridin-2-yl)oxy)ethoxy)pyridin-2(1H)-one] | 1.06 µM | 0.26% | > 30 µM |
| O=c1cc(OCCOC2CCCCC2)ccn1-c1ccc(F)cc1 [Compound 7, 4-(2-(cyclohexyloxy)ethoxy)-1-(4-fluorophenyl)pyridin-2(1H)-one] | > 10 µM | 15.5% | – |
| O=c1cc(OCCOc2ccccc2Cl)ccn1-c1ccc(F)cc1 [Compound 37, 4-(2-(2-chlorophenoxy)ethoxy)-1-(4-fluorophenyl)pyridin-2(1H)-one] | 1.84 µM | 2.05% | > 30 µM |
| O=c1cc(OCCSc2ccccc2)ccn1-c1ccc(F)cc1 [Compound 3, 1-(4-fluorophenyl)-4-(2-(phenylthio)ethoxy)pyridin-2(1H)-one] | 3.89 µM | 1.42% | > 30 µM |
| O=c1cc(OCCOc2cnccc2Cl)ccn1-c1ccc(F)cc1 [Compound 47, 4-(2-((4-chloropyridin-3-yl)oxy)ethoxy)-1-(4-fluorophenyl)pyridin-2(1H)-one] | > 10 µM | 36.7% | > 30 µM |
| O=c1cc(OCCOCc2ccccc2)ccn1-c1ccc(F)cc1 [W, 4-(2-(Benzyloxy)ethoxy)-1-(4-fluorophenyl)pyridin-2(1H)-one] | 13 µM | 14.5% | – |
| N#Cc1cccnc1OCCOc1ccn(-c2ccc(F)cc2)c(=O)c1 [Compound 56, 2-(2-((1-(4-fluorophenyl)-2-oxo-1,2-dihydropyridin-4-yl)oxy)ethoxy)nicotinonitrile] | > 10 µM | 18% | > 30 µM |
| N#Cc1cncc(-n2ccc(OCCOc3ccccc3)cc2=O)c1 [Compound 26, 2-oxo-4-(2-phenoxyethoxy)-2H-[1,3′-bipyridine]-5′-carbonitrile] | 3.41 µM | -5.24% | > 30 µM |
| N#Cc1cccc(OCCOc2ccn(-c3ccc(F)cc3)c(=O)c2)n1 [Compound 59, 6-(2-((1-(4-fluorophenyl)-2-oxo-1,2-dihydropyridin-4-yl)oxy)ethoxy)picolinonitrile] | > 10 µM | 35.9% | > 30 µM |
| O=c1cc(OCCOc2ccccc2)ccn1-c1ccncc1 [Compound 13, 4-(2-phenoxyethoxy)-2H-[1,4′-bipyridin]-2-one] | > 30 µM | – | > 30 µM |
| O=c1cc(OCCOC2CCCC2)ccn1-c1ccc(F)cc1 [Compound 6, 4-(2-(cyclopentyloxy)ethoxy)-1-(4-fluorophenyl)pyridin-2(1H)-one] | > 30 µM | – | – |
| O=c1cc(OCCOc2ccccc2)ccn1-c1ccc(F)nc1 [Compound 25, 6′-fluoro-4-(2-phenoxyethoxy)-2H-[1,3′-bipyridin]-2-one] | 6.75 µM | -2.95% | > 30 µM |
| CN(CCOc1ccn(-c2ccc(F)cc2)c(=O)c1)c1ccccc1 [Compound 4, 1-(4-fluorophenyl)-4-(2-(methyl(phenyl)amino)ethoxy)pyridin-2(1H)-one] | 4 µM | 0% | > 30 µM |
| O=c1cc(OCCS(=O)(=O)c2ccccc2)ccn1-c1ccc(F)cc1 [Compound 9, 1-(4-fluorophenyl)-4-(2-(phenylsulfonyl)ethoxy)pyridin-2(1H)-one] | > 30 µM | – | – |
| O=c1cc(OCC[S+]([O-])c2ccccc2)ccn1-c1ccc(F)cc1 (centres unmarked) [Compound 8, 1-(4-fluorophenyl)-4-(2-(phenylsulfinyl)ethoxy)pyridin-2(1H)-one] | > 30 µM | – | – |
